We go through 11 compounds from ChEMBL document CHEMBL1201862, “PubChem BioAssay data set” (2004).

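Cells were grown in 96-well plates and exposed to each compound for 48 hours at five concentrations; endpoints were interpolated linearly between bracketing concentrations, or set to the highest concentration if not reached. GI50 = concentration required for 50% inhibition of growth.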 Activity calls are given as the source filed them. No stated cut-off is given here; in the data, active = GI50 up to about 1.1 µM and inactive = higher.

Some test systems named below: SNB-19; HOP-62; IGROV-1; U-251; SF-268; A498; OVCAR-3; MOLT-4; HCT-116; A549; BT-549; LOX IMVI; OVCAR-4; KM12; COLO 205; UO-31; K562; 786-0; CCRF-CEM; SK-MEL-28.
Experiment in all cases: NCI-60 cell line screen, 48 h

As to `CCC/N=C/c1cc(Cc2ccc(O)c(/C=N/CCC)c2)ccc1O`, the GI50 in the assay on SNB-19 was 2.7 µM (inactive); with HOP-62 it was 14.1 µM (inactive); in the assay with IGROV-1 it was 4.09 µM (inactive); in the assay with U-251 it was 2.64 µM (inactive); with SF-268, 3.8 µM (inactive); in the assay with A498, 2.37 µM (inactive). The GI50 in the assay on OVCAR-3 is 2.91 µM (inactive); in the assay on MOLT-4 it was 1.54 µM (inactive); in the assay on HCT-116 it was 2.37 µM (inactive); in the assay on A549, 17 µM (inactive); in the assay with BT-549, 10.7 µM (inactive); in the assay with LOX IMVI, 3.17 µM (inactive). Further, the GI50 with OVCAR-4 is 5.47 µM (inactive); in the assay with KM12, 3.95 µM (inactive); in the assay on COLO 205, 16.1 µM (inactive); with UO-31 it was 17.1 µM (inactive); in the assay on K562, 1.69 µM (inactive); in the assay on 786-0, 12.8 µM (inactive).

For the compound `O=C1C(Br)=C(c2ccccc2)O/C1=C/C(=O)c1ccc(Br)cc1`, the GI50 with SNB-19 is > 100 µM (inactive); in the assay with HOP-62 it was > 100 µM (inactive); in the assay on IGROV-1, 54.7 µM (inactive); with U-251 it was 30.8 µM (inactive); with SF-268, 53.1 µM (inactive); in the assay on CCRF-CEM, 26.3 µM (inactive). Further, the GI50 in the assay on A498 is > 100 µM (inactive); in the assay on OVCAR-3, 83.2 µM (inactive); with MOLT-4, 31.6 µM (inactive); in the assay with HCT-116, 39.4 µM (inactive); in the assay on BT-549, 5.38 µM (inactive); with SK-MEL-28 it was 51.3 µM (inactive). Moreover, the GI50 is 66.7 µM (inactive) with OVCAR-4; > 100 µM (inactive) with KM12; > 100 µM (inactive) in the assay with COLO 205; 28.8 µM (inactive) in the assay on UO-31; 25.6 µM (inactive) with K562; 18.4 µM (inactive) with 786-0.

For the compound `OCCCCCCCCCCCOc1ccc(C2OCC3(CO2)COC(c2ccc(OCCCCCCCCCCCO)cc2)OC3)cc1` (centres undefined), the GI50 with SNB-19, in the assay with HOP-62, with IGROV-1, in the assay with U-251, in the assay with SF-268 and with A498 was > 50 µM (inactive) throughout. For the same compound, the GI50 with OVCAR-3, in the assay on MOLT-4, with HCT-116, with A549, with BT-549 and with SK-MEL-28 was > 50 µM (inactive) each time. Further, the GI50 in the assay on LOX IMVI, in the assay with OVCAR-4, with KM12, in the assay with COLO 205, in the assay on UO-31 and in the assay with K562 was > 50 µM (inactive) throughout. In the assay with 786-0, the GI50 was > 50 µM (inactive).

As to `C1=N\CCOCC/N=C\c2ccc(cc2)OCc2cccc(n2)COc2ccc/1cc2`, the GI50 with SNB-19, with HOP-62, with IGROV-1, with U-251, with SF-268 and in the assay with CCRF-CEM was > 100 µM (inactive) in each case. The GI50 in the assay on A498 was > 100 µM (inactive); in the assay on OVCAR-3, 37.6 µM (inactive); in the assay on MOLT-4 it was > 100 µM (inactive); in the assay with HCT-116 it was > 100 µM (inactive); with A549 it was > 100 µM (inactive); in the assay on BT-549, > 100 µM (inactive). The GI50 in the assay on SK-MEL-28, in the assay with OVCAR-4, in the assay with KM12, in the assay on COLO 205, in the assay on UO-31 and with K562 was > 100 µM (inactive) in each case. The GI50 in the assay on 786-0 is > 100 µM (inactive).

On to `COC(=O)c1ccccc1Nc1nc(-c2cccs2)nc2cc(OC)c(OC)cc12`, for which the GI50 with SNB-19 was 33.1 µM (inactive); with HOP-62, 18.3 µM (inactive); with IGROV-1, 14.7 µM (inactive); with U-251, 31.2 µM (inactive); in the assay on SF-268 it was 46.3 µM (inactive); in the assay on A498, > 100 µM (inactive). The GI50 was 40.2 µM (inactive) in the assay with OVCAR-3; 57.9 µM (inactive) in the assay with MOLT-4; 37.5 µM (inactive) in the assay with HCT-116; 54 µM (inactive) in the assay with A549; > 100 µM (inactive) with BT-549; > 100 µM (inactive) with SK-MEL-28. Further, the GI50 in the assay with LOX IMVI was 39.4 µM (inactive); in the assay on OVCAR-4, 40.6 µM (inactive); in the assay on KM12, 71.8 µM (inactive); with COLO 205 it was 45.4 µM (inactive); with UO-31 it was > 100 µM (inactive); in the assay with K562, > 100 µM (inactive). In the assay on 786-0, the GI50 was 38.8 µM (inactive).

For `CC(=O)Nc1ccc(-c2cc(C(=O)O)c3cc4ccccc4cc3n2)cc1`, the GI50 in the assay on SNB-19, in the assay on HOP-62, with IGROV-1, with U-251, in the assay with SF-268 and in the assay with A498 was > 100 µM (inactive) in each case. Also, the GI50 in the assay on OVCAR-3, in the assay with MOLT-4, in the assay with HCT-116, in the assay with A549, in the assay with BT-549 and in the assay with SK-MEL-28 was > 100 µM (inactive) throughout. The GI50 with LOX IMVI, in the assay on OVCAR-4, in the assay on KM12, in the assay on COLO 205, in the assay on K562 and in the assay with 786-0 was > 100 µM (inactive) in each case.

`OCCOCn1nncc1Cn1ncc2c(SCc3ccccc3)ncnc21`: the GI50 in the assay with SNB-19 is > 100 µM (inactive); with HOP-62 it was > 100 µM (inactive); in the assay on IGROV-1 it was 51.1 µM (inactive); in the assay on U-251 it was > 100 µM (inactive); with SF-268 it was > 100 µM (inactive); in the assay on A498 it was > 100 µM (inactive). In addition, the GI50 is > 100 µM (inactive) in the assay on OVCAR-3; 6.19 µM (inactive) with MOLT-4; 45.9 µM (inactive) in the assay on HCT-116; > 100 µM (inactive) with A549; > 100 µM (inactive) in the assay with BT-549; > 100 µM (inactive) in the assay on SK-MEL-28. The GI50 with LOX IMVI was 35.5 µM (inactive); in the assay with OVCAR-4, 88.5 µM (inactive); in the assay on KM12, > 100 µM (inactive); in the assay with COLO 205, > 100 µM (inactive); in the assay with UO-31, 66.7 µM (inactive); in the assay on K562 it was 37.7 µM (inactive). Further, the GI50 in the assay on 786-0 is 34.7 µM (inactive).

Turning to `CCOP(=O)(OCC)/C(C#N)=C/c1cccn1CC(C)C`, the GI50 in the assay with SNB-19, in the assay on HOP-62, in the assay on IGROV-1, with U-251, in the assay on SF-268 and with A498 was > 100 µM (inactive) each time. In addition, the GI50 was > 100 µM (inactive) with OVCAR-3; 52.5 µM (inactive) with MOLT-4; > 100 µM (inactive) with HCT-116; > 100 µM (inactive) with A549; > 100 µM (inactive) in the assay on BT-549; > 100 µM (inactive) with SK-MEL-28. The GI50 is > 100 µM (inactive) in the assay with LOX IMVI; 89.9 µM (inactive) in the assay on KM12; > 100 µM (inactive) in the assay with COLO 205; 61.4 µM (inactive) in the assay with UO-31; 39.9 µM (inactive) in the assay on K562; > 100 µM (inactive) with 786-0.

Regarding `COc1cccc(Nc2nc(C)c([N+](=O)[O-])c(Nc3cccc(OC)c3)n2)c1`, the GI50 was 89.1 µM (inactive) with SNB-19; 12.1 µM (inactive) in the assay on HOP-62; 14.6 µM (inactive) in the assay on IGROV-1; 49.1 µM (inactive) in the assay on U-251; 40.4 µM (inactive) in the assay on SF-268; 9.35 µM (inactive) in the assay with A498. The GI50 in the assay on OVCAR-3 was 12.9 µM (inactive); with MOLT-4, 4.37 µM (inactive); in the assay on HCT-116, 26.6 µM (inactive); in the assay on A549 it was 12.1 µM (inactive); in the assay with BT-549 it was 1.85 µM (inactive); in the assay on SK-MEL-28, 39.5 µM (inactive). The GI50 in the assay with LOX IMVI is 16.1 µM (inactive); in the assay on COLO 205, 13.9 µM (inactive); with UO-31, 9.27 µM (inactive); with K562 it was 8.65 µM (inactive); with 786-0, 51.9 µM (inactive).

`CC1OC(O)C(O)C(O)C1O` (centres undefined): the GI50 in the assay on SNB-19, in the assay on HOP-62, in the assay with IGROV-1, with U-251, with SF-268 and in the assay with A498 was > 100 µM (inactive) in each case. Also, the GI50 in the assay with OVCAR-3, with HCT-116, in the assay with A549, in the assay with BT-549, in the assay with SK-MEL-28 and in the assay on LOX IMVI was > 100 µM (inactive) throughout. The GI50 with OVCAR-4, in the assay with KM12, with COLO 205, with UO-31, with K562 and with 786-0 was > 100 µM (inactive) throughout.

For the compound `O=[N+]([O-])c1cccc(-c2ccc([C@H]3CC(c4ccc(Cl)cc4)=NN3)o2)c1`, the GI50 was 38.4 µM (inactive) in the assay on SNB-19; 20.3 µM (inactive) in the assay with HOP-62; 21 µM (inactive) in the assay with IGROV-1; 27 µM (inactive) with SF-268; 1.43 µM (inactive) in the assay with CCRF-CEM; 31.6 µM (inactive) in the assay on A498. Also, the GI50 in the assay on OVCAR-3 is 18.9 µM (inactive); in the assay on MOLT-4, 0.891 µM (active); in the assay on HCT-116, 15.2 µM (inactive); in the assay with A549, > 100 µM (inactive); in the assay with BT-549, 17.6 µM (inactive); in the assay on OVCAR-4, 23.2 µM (inactive). The GI50 was > 100 µM (inactive) in the assay on COLO 205, 22.1 µM (inactive) in the assay with UO-31, 19.1 µM (inactive) in the assay on K562 and 14.6 µM (inactive) with 786-0.
